Measured values as given in US7589123B2, “Chemical compounds” (Phytopharm PLC, priority 2006, dated 2009).

Legend:
[1] = test system: α-smooth muscle actin (α-SMA) mRNA; test: Anti-remodelling activity in human lung fibroblasts (HFL1): TGFβ-induced α-SMA mRNA (Assay 4); format: cell-based; settings: Homo sapiens, HFL1 cells, TGFβ 10 ng/ml, 24 h, read-out: Inhibition of α-SMA mRNA synthesis (%)
Outline: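 Real-time RT-PCR of α-SMA mRNA, GAPDH as reference, measured after 24 h exposure of low-serum-primed HFL1 cells to 10 ng/ml TGFβ with test compounds (3 and 30 μM) in 10% FBS medium. Readout is inhibition of TGFβ-driven α-SMA mRNA overexpression.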

[2] = test system: ovalbumin-sensitised mice; test: Ovalbumin-sensitised mice, a chronic model of asthma in vivo (Assay 8); settings: for methacholine-induced increase in penH (enhanced pause) / Increase in penH: day 54; for methacholine-induced increase in penH (enhanced pause): methacholine challenge 50 mg/kg; for methacholine-induced increase in penH (enhanced pause) / eosinophil infiltration into the lung / IL-13 concentrations in the BAL / amount of lung remodelling (histopathology grading): oral gavage 20 days: compound 2 3, compound 32 30, budesonide 1, montelukast 10 mg/kg/day; for eosinophil infiltration into the lung: day 55, BAL cytospins; for Eosinophil infiltration / IL-4 concentration / IL-13 concentration / Histopathology score / Increase in penH: mean ± s.e.mean, oral gavage 20 days: 2 3 mg/kg/day, 32 30 mg/kg/day, budesonide 1 mg/kg/day, montelukast 10 mg/kg/day; for Eosinophil infiltration / IL-4 concentration / IL-13 concentration: BAL fluid day 55; for Eosinophil infiltration: sensitised 192.1 ± 33.2; for IL-4 concentration: sensitised 231.2 ± 62.4; for IL-13 concentration: sensitised 241.9 ± 89.3; for Histopathology score: lung remodelling, sensitised 541.6 ± 36.1; for Increase in penH: methacholine challenge, sensitised 193.0 ± 61.7
Experimental: Mice (BALB/c from Harlan-Olac) were sensitised to ovalbumin using two interperitoneal injections of ovalbumin (10 μg) and alum (200 μl) on day 1 and 14 followed by a 20 min, daily exposure to a ovalbumin aerosol (5%) on days 19-23 and then a thrice weekly 20 min, exposure to a ovalbumin aerosol (5%) on days 24-55. […] On day 54, mice were placed in BUXCO four chamber whole body plethysmographs and breathing-associated pressure changes were recorded which were then used to calculate enhanced pause (penH), a measurement of airways resistance, in response to a methacholine challenge.
On day 55 the mice were killed and brochoalveolar lavage (BAL) fluid was collected and cytospins prepared to measure eosinophil infiltration. In addition, concentrations of interleukin-4 (IL-4) and interleukin-13 (IL-13) were measured in the BAL fluid. Furthermore, lung samples were taken, examined by a histopathologist and scored using a grading system to describe the degree of lung remodelling.

[3] = test system: ovalbumin-sensitised guinea pigs; test: Ovalbumin-sensitised guinea pigs, a model of asthma in vivo (Assay 7); set-up: species or system guinea pig; settings: oral gavage 30 mg/kg/day for 7 days
Experimental: Dunkin-Hartley guinea pigs were sensitised to ovalbumin using two interperitoneal injections of ovalbumin (20 μg) in Al(OH)3 gel (1.65 mg) on days 1 and 11. On day 25 compound 2 was administered by oral gavage (30 mg/kg/day) for 7 days. On day 31, approximately 2 h after the last administration of compound 2, each guinea pig was anaesthetised with urethane (1750 mg/kg, i.p.) and artificially ventilated via a tracheal cannula connected to a Fleisch pneumotachograph (size 00) and a differential pressure transducer (±2 cm H2O; PT5, Grass Astro-Med Inc., USA). Total pulmonary resistance (RL) was calculated online by integration of flow, tidal volume and transpulmonary pressure. Pulmonary resistance was recorded for approximately 5 min before ovalbumin (300 μg/ml, i.v) challenge and for approximately 15 min following ovalbumin challenge and was recorded in real time using a computer data acquisition system (Po-ne-Mah, USA).

Structure (SMILES) | inhibition at 3 µM [1] | inhibition at 30 µM [1] | methacholine-induced increase in penH (enhanced pause) [2] | eosinophil infiltration into the lung [2] | IL-13 concentrations in the BAL ([2]; day 55) | amount of lung remodelling (histopathology grading) ([2]; day 55) | IL-4 concentration in the BAL ([2]; day 55, oral gavage 20 days: compound 32 30, budesonide 1, montelukast 10 mg/kg/day) | Eosinophil infiltration [2] | IL-4 concentration [2] | IL-13 concentration [2] | Histopathology score ([2]; day 55) | Increase in penH [2] | increase in pulmonary resistance following ovalbumin exposure ([3]; ovalbumin 300 μg/kg i.v. challenge, vehicle control group 228±57%) | increase in pulmonary resistance compared with vehicle control ([3]; ovalbumin i.v. challenge)
COc1cc(CCC(=O)CC(=O)c2ccccc2)ccc1O [Compound 69, 5-(4-Hydroxy-3-methoxyphenyl)-1-phenyl-pentane-1,3-dione] | 10% | 34% |  |  |  |  |  |  |  |  |  |  |  | 
COc1cc(CCC(=O)C(C)(C)C(=O)c2ccccc2)ccc1O [Compound 32, 2,2-Dimethyl-5-(4-hydroxy-3-methoxy-phenyl)-1-phenyl-pentane-1,3-dione] | 13% | 58% | decreased | reduced | reduced | reduced | reduced | 106.6 ± 19.9% of control | 168.0 ± 50.8% of control | 148.7 ± 88.4% of control | 339.3 ± 45.0% of control | 153.5 ± 29.0% of control |  | 
COc1cc(CCC(=O)CC(=O)C2(C)CC2)ccc1O [Compound 6, 5-(4-Hydroxy-3-methoxyphenyl)-1-(1-methylcyclopropyl)-pentane-1,3-dione] | -12% | 22% |  |  |  |  |  |  |  |  |  |  |  | 
COc1cc(CCC(=O)C(C)C(=O)c2ccccc2)ccc1O (stereo not shown) [Compound 11, 5-(4-Hydroxy-3-methoxy-phenyl)-2-methyl-1-phenyl-pentane-1,3-dione] | 8% | 39% |  |  |  |  |  |  |  |  |  |  |  | 
COc1cc(CCC(=O)CC(=O)C(C)(C)C)ccc1O [Compound 2, 6,6-Dimethyl-1-(4-hydroxy-3-methoxyphenyl)-heptane-3,5-dione] | 5% | 27% | decreased | reduced | reduced | reduced |  | 83.0 ± 10.8% of control | 238.2 ± 57.1% of control | 183.0 ± 60.9% of control | 450.0 ± 33.4% of control | 107.4 ± 21.5% of control | 132±15% | significantly lower than vehicle control
